Values joined by “and” are separate entries in the source; they are usually repeats but may differ in a detail not shown here. Equal entries are not always repeated.
Key:
[1] = molecular target: Hrh3 protein (Rattus norvegicus, UniProt Q5PPG3)
[2] = molecular target: T1, Alpha-2A adrenergic receptor (Homo sapiens, UniProt P08913)
T1 sequence (P08913 whole entry): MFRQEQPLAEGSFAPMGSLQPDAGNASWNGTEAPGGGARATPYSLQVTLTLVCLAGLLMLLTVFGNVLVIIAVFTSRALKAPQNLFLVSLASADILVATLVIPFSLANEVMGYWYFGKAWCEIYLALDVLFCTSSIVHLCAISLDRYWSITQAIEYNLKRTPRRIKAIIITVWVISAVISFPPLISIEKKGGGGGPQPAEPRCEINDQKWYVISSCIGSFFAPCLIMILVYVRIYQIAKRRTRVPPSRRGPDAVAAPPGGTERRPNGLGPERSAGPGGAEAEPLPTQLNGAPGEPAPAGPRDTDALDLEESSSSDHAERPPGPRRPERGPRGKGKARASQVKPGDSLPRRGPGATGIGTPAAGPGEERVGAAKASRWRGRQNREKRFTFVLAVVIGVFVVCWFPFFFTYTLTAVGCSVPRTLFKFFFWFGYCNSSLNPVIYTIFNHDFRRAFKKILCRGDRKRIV

[3] = molecular target: Histamine H1 receptor (Homo sapiens, UniProt P35367)
Chain of Histamine H1 receptor (P35367 whole entry): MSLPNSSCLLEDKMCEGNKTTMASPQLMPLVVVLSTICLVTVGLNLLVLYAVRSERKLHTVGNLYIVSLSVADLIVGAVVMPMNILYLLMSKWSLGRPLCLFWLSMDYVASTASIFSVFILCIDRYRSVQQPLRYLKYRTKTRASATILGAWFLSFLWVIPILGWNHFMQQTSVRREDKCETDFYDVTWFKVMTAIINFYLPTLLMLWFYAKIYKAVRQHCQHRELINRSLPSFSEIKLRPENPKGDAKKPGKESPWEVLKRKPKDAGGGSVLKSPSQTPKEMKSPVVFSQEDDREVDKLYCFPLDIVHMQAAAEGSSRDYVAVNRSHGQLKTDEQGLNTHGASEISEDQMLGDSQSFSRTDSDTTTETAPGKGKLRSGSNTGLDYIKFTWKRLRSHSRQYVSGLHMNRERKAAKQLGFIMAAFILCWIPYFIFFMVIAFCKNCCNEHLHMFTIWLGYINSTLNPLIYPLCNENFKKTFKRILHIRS

[4] = molecular target: Histamine H2 receptor (Homo sapiens, UniProt P25021)
Chain of Histamine H2 receptor (P25021 whole entry): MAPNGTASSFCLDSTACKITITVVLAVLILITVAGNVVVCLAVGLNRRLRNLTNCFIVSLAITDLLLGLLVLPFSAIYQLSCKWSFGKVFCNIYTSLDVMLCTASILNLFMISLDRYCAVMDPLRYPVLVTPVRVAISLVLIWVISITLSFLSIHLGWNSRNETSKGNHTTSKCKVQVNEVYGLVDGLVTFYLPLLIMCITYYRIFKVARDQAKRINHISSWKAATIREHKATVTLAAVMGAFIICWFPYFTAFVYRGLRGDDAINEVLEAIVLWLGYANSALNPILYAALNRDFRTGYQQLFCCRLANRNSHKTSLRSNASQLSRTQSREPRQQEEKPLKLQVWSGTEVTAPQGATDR

[5] = molecular target: Histamine H3 receptor (Cavia porcellus, UniProt Q9JI35)
Chain of Histamine H3 receptor (Cavia porcellus, UniProt Q9JI35) (Q9JI35 whole entry): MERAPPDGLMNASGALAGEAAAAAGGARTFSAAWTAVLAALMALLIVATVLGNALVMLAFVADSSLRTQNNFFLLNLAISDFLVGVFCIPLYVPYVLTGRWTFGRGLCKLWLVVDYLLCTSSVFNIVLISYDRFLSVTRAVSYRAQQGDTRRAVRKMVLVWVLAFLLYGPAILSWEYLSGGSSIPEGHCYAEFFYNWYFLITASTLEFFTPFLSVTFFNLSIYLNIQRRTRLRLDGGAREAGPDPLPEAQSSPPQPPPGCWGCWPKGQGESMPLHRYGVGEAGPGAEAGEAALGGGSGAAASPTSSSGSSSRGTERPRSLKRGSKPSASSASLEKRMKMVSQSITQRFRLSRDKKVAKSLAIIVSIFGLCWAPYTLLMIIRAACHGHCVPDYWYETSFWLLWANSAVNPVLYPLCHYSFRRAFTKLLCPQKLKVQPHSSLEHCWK

[6] = molecular target: T2, Alpha-2C adrenergic receptor (Homo sapiens, UniProt P18825)
T2 sequence (P18825 whole entry): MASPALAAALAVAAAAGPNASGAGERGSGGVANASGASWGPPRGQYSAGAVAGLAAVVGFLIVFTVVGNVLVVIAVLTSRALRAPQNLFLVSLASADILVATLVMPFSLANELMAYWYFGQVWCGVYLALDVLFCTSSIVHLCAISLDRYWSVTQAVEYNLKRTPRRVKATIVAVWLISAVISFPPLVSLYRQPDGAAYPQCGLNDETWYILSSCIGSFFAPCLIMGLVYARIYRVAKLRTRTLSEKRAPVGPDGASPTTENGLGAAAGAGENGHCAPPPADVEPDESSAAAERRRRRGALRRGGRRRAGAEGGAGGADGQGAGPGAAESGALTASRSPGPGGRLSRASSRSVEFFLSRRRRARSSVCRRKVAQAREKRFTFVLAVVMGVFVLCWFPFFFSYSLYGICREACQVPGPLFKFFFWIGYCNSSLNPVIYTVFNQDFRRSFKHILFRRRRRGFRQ

[7] = molecular target: Histamine receptor H3 (Canis lupus familiaris, UniProt Q865E3)
Chain of Histamine receptor H3 (Q865E3 whole entry): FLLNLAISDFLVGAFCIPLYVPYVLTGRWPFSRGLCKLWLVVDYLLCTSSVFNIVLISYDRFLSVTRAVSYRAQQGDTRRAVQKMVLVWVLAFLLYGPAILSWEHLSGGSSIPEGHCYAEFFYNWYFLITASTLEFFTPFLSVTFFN

[8] = molecular target: T3, 5-hydroxytryptamine receptor 3A (Rattus norvegicus, UniProt P35563)
T3 sequence (P35563 whole entry): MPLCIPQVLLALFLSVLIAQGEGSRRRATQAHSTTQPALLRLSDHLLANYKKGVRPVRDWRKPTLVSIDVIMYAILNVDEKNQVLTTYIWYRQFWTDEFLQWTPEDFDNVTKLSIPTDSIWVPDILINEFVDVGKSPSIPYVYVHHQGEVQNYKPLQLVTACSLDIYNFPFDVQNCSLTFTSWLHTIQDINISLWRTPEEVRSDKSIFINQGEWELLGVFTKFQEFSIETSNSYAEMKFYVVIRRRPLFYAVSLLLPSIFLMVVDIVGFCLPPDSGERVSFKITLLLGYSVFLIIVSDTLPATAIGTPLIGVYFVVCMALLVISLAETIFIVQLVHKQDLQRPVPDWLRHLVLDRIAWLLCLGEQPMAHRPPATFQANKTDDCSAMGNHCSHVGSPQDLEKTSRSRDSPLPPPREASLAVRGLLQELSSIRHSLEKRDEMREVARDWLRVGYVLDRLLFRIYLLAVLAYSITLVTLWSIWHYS

[9] = molecular target: Histamine H4 receptor (Homo sapiens, UniProt Q9H3N8)
[10] = molecular target: Histamine H3 receptor (Homo sapiens, UniProt Q9Y5N1)
Chain of Histamine H3 receptor (Homo sapiens, UniProt Q9Y5N1) (Q9Y5N1 whole entry): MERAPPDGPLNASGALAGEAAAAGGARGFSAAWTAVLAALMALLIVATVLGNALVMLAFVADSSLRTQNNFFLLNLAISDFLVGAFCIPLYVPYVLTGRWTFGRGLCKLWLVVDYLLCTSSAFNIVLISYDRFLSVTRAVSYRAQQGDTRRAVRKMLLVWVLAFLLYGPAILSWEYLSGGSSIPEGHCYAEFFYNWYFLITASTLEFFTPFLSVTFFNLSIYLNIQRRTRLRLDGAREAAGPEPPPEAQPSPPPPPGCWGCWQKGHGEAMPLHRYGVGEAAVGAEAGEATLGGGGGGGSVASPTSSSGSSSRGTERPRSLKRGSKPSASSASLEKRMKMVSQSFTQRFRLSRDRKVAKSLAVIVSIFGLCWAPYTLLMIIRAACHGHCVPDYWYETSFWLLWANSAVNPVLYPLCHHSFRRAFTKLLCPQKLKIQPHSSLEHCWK

Chain of Hrh3 protein (Q5PPG3 whole entry): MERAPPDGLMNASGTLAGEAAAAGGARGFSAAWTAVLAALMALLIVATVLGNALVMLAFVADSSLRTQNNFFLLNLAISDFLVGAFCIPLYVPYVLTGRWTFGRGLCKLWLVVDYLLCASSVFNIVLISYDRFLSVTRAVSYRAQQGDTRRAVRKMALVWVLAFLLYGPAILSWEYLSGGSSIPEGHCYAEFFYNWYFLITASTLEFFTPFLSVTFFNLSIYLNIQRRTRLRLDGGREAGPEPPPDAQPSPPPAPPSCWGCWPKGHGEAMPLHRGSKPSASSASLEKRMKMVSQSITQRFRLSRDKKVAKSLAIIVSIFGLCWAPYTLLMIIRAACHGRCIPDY

SMILES | Ki [1] | Ki [2] [nM] | Ki [3] [nM] | Ki [4] [nM] | Ki [5] [nM] | Ki [7] [nM] | Ki [9] [nM] | Ki [10] | Ki [6] [nM] | Ki [8] [nM]
S=C(NC1CCCCC1)N1CCC(c2cnc[nH]2)CC1 | 3.63 nM and 7.08 nM | 126 | > 10000 | > 10000 | 4.57 | 6.76 | – | – | 347 | 2290
CCn1c(=O)[nH]c(=O)c2conc21 [A-304121] | 2.51 nM and 1.26 nM | > 10000 | > 10000 | > 10000 | 17.4 | 46.8 | > 10000 | 759 nM and 813 nM | 2880 | –
NC(=NCc1ccc(Cl)cc1)SCCCc1cnc[nH]1 [VUF 9153] | – | 17.4 | 6310 | 2510 | 0.22 | 0.08 | 41.7 | – | 15.9 | 7.41

Further lines, with some results ahead:

Ki [1] | Ki [2] [nM] | Ki [3] [nM] | Ki [4] [nM] | Ki [5] [nM] | Ki [7] [nM] | Ki [9] [nM] | Ki [10] | SMILES | Ki [6] [nM] | Ki [8] [nM]
0.51 nM and 0.63 nM | 42.7 | > 10000 | > 10000 | 1.74 | 5.75 | 1860 | – | O=C(c1ccc(OCCCc2cnc[nH]2)cc1)C1CC1 | – | 302
0.71 nM and 0.72 nM | > 10000 | 3980 | > 10000 | 2.4 | 4.27 | > 10000 | – | C[C@@H](NC(=O)c1ccco1)C(=O)N1CCN(CCCOc2ccc(C(=O)C3CC3)cc2)CC1 | 2400 | > 10000

— BindingDB's records for doi:10.1124/jpet.102.047183 (Abbott Laboratories, 2003)
